Source: patent publication US7348412B1, “Ouabain-specific monoclonal antibodies” (priority 1999, dated 2008)

Experiments:
Set-up in all cases: species or system A/J mice
[1] = tested on: 1-10 mAb; details: free analogue 0.00035-200 μM inhibiting binding of mAb 1-10 to Oua-BGG
Experimental: (§1) Competition ELISA was used first to determine the relative affinity of each mAb for Oua and Dig. The 96-well PVC plates were coated with 50 μl of 5 μg/ml Oua-BGG in PBSA. First we determined the Ab concentration which was not in excess of immobilized antigen. Using the direct binding assay described above, the concentration of Ab at which 50% binding was achieved was ascertained. Inhibition of binding of Abs to Oua-BGG was determined by adding 25 μl Ab (concentrations as determined above) and 25 μl of free Oua (0.001-200 μM, 2-fold dilutions). Percent inhibition is the ratio (OD450 in the presence of 1% BSA−OD450 in the presence of Oua)/(OD450 in the presence of 1% BSA)×100. The relative affinity (IC50) is the Oua concentration that inhibits 50% of the binding of Ab to Oua-BGG.
(§2) Competition ELISA was used to determine the cross reactivity of the mAbs with different digitalis glycosides (Oua, Dig, gitoxin and digitoxin and their derivatives listed in Tables I and II) and with endogenous steroid hormones (cortisone, corticosterone and progesterone). In these assays binding of mAbs to Oua-BGG was determined in the presence or absence of various concentrations (0.00035-200 μM) of free digitalis glycosides and steroid hormones as described above.
(§3) Inhibition assays were performed to identify clones that produce mAbs, the binding of which to Oua-BGG could be inhibited with free Oua at μM concentrations. Abs were titrated in direct binding assays to determine the concentration equivalent to 35-50% binding to Oua-BGG. Binding of Abs to Oua-BGG was determined in the presence or absence of 0.00035-200 μM of free Oua. Ab binding was detected using HRP-goat anti-mouse Ab. […] Percentage inhibition was calculated as described in Materials and Methods.

[2] = tested on: 26-10 mAb; details: free analogue 0.00035-200 μM inhibiting binding of mAb 26-10 to Oua-BGG
Experimental: as §1, §2, §3

[3] = tested on: 7-1 mAb; details: free analogue 0.00035-200 μM inhibiting binding of mAb 7-1 to Oua-BGG
Experimental: as §1, §2, §3

[4] = tested on: 5A12 mAb; details: free analogue 0.00035-200 μM inhibiting binding of mAb 5A12 to Oua-BGG
Experimental: as §1
as §2, with “above. […]” for “above.”

| Compound | IC50 [1] [µM] | IC50 [2] [µM] | IC50 [3] [µM] | IC50 [4] [µM] |
| --- | --- | --- | --- | --- |
| CC(=O)O[C@H]1C[C@]2(O)[C@@H]3CC[C@@H]4C[C@@H](O[C@H]5C[C@H](O)[C@H](O[C@H]6C[C@H](O)[C@H](O[C@H]7C[C@H](O)[C@H](O)[C@@H](C)O7)[C@@H](C)O6)[C@@H](C)O5)CC[C@]4(C)[C@H]3CC[C@]2(C)[C@H]1C1=CC(=O)OC1 [16-acetylgitoxin] | > 100 | 0.5 | > 100 | > 100 |
| CC(=O)O[C@H]1CC[C@]2(C=O)[C@H]3CC[C@]4(C)[C@@H](C5=CC(=O)OC5)CC[C@]4(O)[C@@H]3CC[C@]2(O)C1 [Acetylstrophanthidin] | 6 | 0.2 | 6 | 2 |
| CO[C@@H]1[C@H](O)[C@@H](O[C@@H]2C[C@H]3CC[C@@H]4[C@H](CC[C@]5(C)[C@@H](C6=CC(=O)OC6)CC[C@]45O)[C@@]3(C)[C@H](O)C2)O[C@@H](C)[C@@H]1O [Acovenoside] | 8 | 0.2 | 8 | 5 |
| C[C@@H]1O[C@@H](O[C@H]2CC[C@]3(C=O)[C@H]4CC[C@]5(C)[C@@H](C6=CC(=O)OC6)CC[C@]5(O)[C@@H]4CC[C@]3(O)C2)[C@H](O)[C@H](O)[C@H]1O [Convallatoxin] | 3 | 0.1 | 3 | 2 |
| C[C@]12C[C@H](O)[C@H]3[C@@H](CCC4=CC(=O)CC[C@@]43C)[C@@H]1CC[C@@H]2C(=O)CO [Corticosterone] | > 100 | > 100 | > 100 | > 100 |
| C[C@]12CCC(=O)C=C1CC[C@@H]1[C@@H]2C(=O)C[C@@]2(C)[C@H]1CC[C@]2(O)C(=O)CO [Cortisone] | > 100 | 100 | > 100 | > 100 |
| C[C@]12CC[C@H](O)C[C@H]1CC[C@@H]1[C@@H]2CC[C@]2(C)[C@@H](C3=CC(=O)OC3)CC[C@]12O [Digitoxigenin] | 4 | 0.04 | 4 | 4 |
| C[C@H]1O[C@@H](O[C@H]2[C@@H](O)C[C@H](O[C@H]3[C@@H](O)C[C@H](O[C@H]4CC[C@@]5(C)[C@H](CC[C@@H]6[C@@H]5CC[C@]5(C)[C@@H](C7=CC(=O)OC7)CC[C@]65O)C4)O[C@@H]3C)O[C@@H]2C)C[C@H](O)[C@@H]1O [Digitoxin] | 3 | 0.02 | 3 | 3 |
| CC(=O)O[C@H]1CC[C@@]2(C)[C@H](CC[C@@H]3[C@@H]2C[C@@H](OC(C)=O)[C@]2(C)[C@@H](C4=CC(=O)OC4)CC[C@]32O)C1 [Digoxigenin-3,12-diacetate] | > 100 | 6 | > 100 | > 100 |
| C[C@H]1O[C@@H](O[C@H]2[C@@H](O)C[C@H](O[C@H]3[C@@H](O)C[C@H](O[C@H]4CC[C@@]5(C)[C@H](CC[C@@H]6[C@@H]5C[C@@H](O)[C@]5(C)[C@@H](C7=CC(=O)OC7)CC[C@]65O)C4)O[C@@H]3C)O[C@@H]2C)C[C@H](O)[C@@H]1O [Digoxin] | > 100 | 0.006 | > 100 | > 100 |
| CC(=O)OC1CCC2(C)C(CCC3C2CCC2(C)C(C4=CC(=O)OC4)C(OC(C)=O)CC32O)C1 (stereo not shown) [Gitoxigenin-3,16-diacetate] | > 100 | > 100 | > 100 | > 100 |
| C[C@H]1O[C@@H](O[C@H]2[C@@H](O)C[C@H](O[C@H]3[C@@H](O)C[C@H](O[C@H]4CC[C@@]5(C)[C@H](CC[C@@H]6[C@@H]5CC[C@]5(C)[C@@H](C7=CC(=O)OC7)[C@@H](O)C[C@]65O)C4)O[C@@H]3C)O[C@@H]2C)C[C@H](O)[C@@H]1O [Gitoxin] | > 100 | 1.5 | > 100 | 100 |
| C[C@H]1O[C@@H](O[C@H]2CC[C@]3(C=O)[C@H]4CC[C@]5(C)[C@@H](C6=CC(=O)OC6)CC[C@]5(O)[C@@H]4CC[C@]3(O)C2)C[C@H](O)[C@@H]1O [Helveticoside] | 150 | 0.2 | 150 | 150 |
| CC(=O)O[C@H]1C[C@]2(O)[C@@H]3CC[C@@H]4C[C@@H](O)CC[C@]4(C)[C@H]3CC[C@]2(C)[C@H]1C1=CC(=O)OC1 [Oleandrigenin] | > 100 | > 100 | > 100 | > 100 |
| CO[C@H]1C[C@H](O[C@H]2CC[C@@]3(C)[C@H](CC[C@@H]4[C@@H]3CC[C@]3(C)[C@@H](C5=CC(=O)OC5)[C@@H](OC(C)=O)C[C@]43O)C2)O[C@@H](C)[C@@H]1O [Oleandrin] | > 100 | > 100 | > 100 | > 100 |
| C[C@]12C[C@@H](O)[C@H]3[C@@H](CC[C@]4(O)C[C@@H](O)C[C@@H](O)[C@]34CO)[C@@]1(O)CC[C@@H]2C1=CC(=O)OC1 [Ouabagenin] | 30 | 0.4 | 30 | 16 |
| C[C@@H]1O[C@@H](O[C@H]2C[C@@H](O)[C@]3(CO)[C@H]4[C@H](O)C[C@]5(C)[C@@H](C6=CC(=O)OC6)CC[C@]5(O)[C@@H]4CC[C@]3(O)C2)[C@H](O)[C@H](O)[C@H]1O [Ouabain] | 25 | 0.37 | 20 | 10 |
| CC(=O)[C@H]1CC[C@H]2[C@@H]3CCC4=CC(=O)CC[C@]4(C)[C@H]3CC[C@]12C [Progesterone] | > 100 | 2 | > 100 | > 100 |
| C[C@]12CC[C@H]3[C@@H](CC[C@]4(O)C[C@@H](O)CC[C@]34C=O)[C@@]1(O)CC[C@@H]2C1=CC(=O)OC1 [Strophanthidin] | 10 | 0.2 | 10 | 4 |
